We go through five compounds from patent US20180188338A1, “Nuclear Spin Polarization Enhancing Method Through Dynamic Nuclear Polarization by Using Soluble Pentacene” (RIKEN, priority 2015, published 2018).

The series can be described thus: confirmation of dissolution of the pentacene derivative in the solvent. The class given is physicochemical. The procedure:
Herein, all samples are compositions containing no test compound and including the pentacene derivative and/or the salt thereof and the solvent.
6,13-Diphenylpentacene (0.4 mg, produced by Sigma-Aldrich Co., Ltd.) represented by the following formula was prepared as the pentacene derivative represented by formula (A), and dissolved in a mixed liquid of water and deuterated ethanol (2 mL, pure water:ethanol=1:9% by mass) as the solvent, thereby preparing a sample.
6,13-Diphenylpentacene (0.5 mg) represented by the above formula, as the pentacene derivative represented by formula (A), was dissolved in a mixed liquid of benzene and polystyrene (1 mL, benzene:polystyrene=5:5% by mass) as the solvent, thereby preparing a sample.
6,13-Diphenylpentacene (0.5 mg) represented by the above formula, as the pentacene derivative represented by formula (A), was dissolved in a mixed liquid of benzene and deuterated toluene (1 mL, benzene:deuterated toluene=1:9% by mass) as the solvent, thereby preparing a sample.
6,13-Dibiphenylpentacene (0.4 mg, produced by Luminescence Technology Crop.) represented by the following formula, as the pentacene derivative represented by formula (A), was dissolved in a mixed liquid of benzene and deuterated toluene (2 mL, benzene:deuterated toluene=1:9% by mass) as the solvent, thereby preparing a sample.
6,13-Bis[(triethylsilyl)ethynyl]pentacene (0.4 mg, produced by Sigma-Aldrich Co., Ltd.) represented by the following formula, as the pentacene derivative represented by formula (A), was dissolved in a mixed liquid of benzene and polystyrene (2 mL, benzene:polystyrene=5:5% by mass) as the solvent, thereby preparing a sample.
6,13-Bis[(triisopropylsilyl)ethynyl]pentacene (0.4 mg, produced by Tokyo Chemical Industry Co., Ltd.) represented by the following formula, as the pentacene derivative represented by formula (A), was dissolved in a mixed liquid of benzene and polystyrene (2 mL, benzene:polystyrene=5:5% by mass) as the solvent, thereby preparing a sample.
Pentacene (0.4 mg, produced by Sigma-Aldrich Co., Ltd.) represented by the following formula, and a mixed liquid of benzene and deuterated toluene (2 mL, benzene:deuterated toluene=1:9% by mass) as the solvent were mixed, thereby preparing a composition for NMR measurement.

Where [1] appears, read: 0.4 mg in 2 mL mixed liquid of benzene and polystyrene (5:5 by mass).
[2] abbreviates: 0.4 mg in 2 mL mixed liquid of benzene and deuterated toluene (1:9 by mass).

Regarding `CC[Si](C#Cc1c2cc3ccccc3cc2c(C#C[Si](CC)(CC)CC)c2cc3ccccc3cc12)(CC)CC` [6,13-bis[(triethylsilyl)ethynyl]pentacene], the “dissolution in the solvent” value under setting [1] was “completely dissolved”. Regarding `CC(C)[Si](C#Cc1c2cc3ccccc3cc2c(C#C[Si](C(C)C)(C(C)C)C(C)C)c2cc3ccccc3cc12)(C(C)C)C(C)C` [6,13-bis[(triisopropylsilyl)ethynyl]pentacene], the “dissolution in the solvent” value under setting [1] is listed as “completely dissolved”. Turning to `c1ccc(-c2ccc(-c3c4cc5ccccc5cc4c(-c4ccc(-c5ccccc5)cc4)c4cc5ccccc5cc34)cc2)cc1` [6,13-dibiphenylpentacene], the “dissolution in the solvent” value under setting [2] is recorded as “completely dissolved”. As for `c1ccc(-c2c3cc4ccccc4cc3c(-c3ccccc3)c3cc4ccccc4cc23)cc1` [6,13-diphenylpentacene], the “dissolution in the solvent” value is given as “completely dissolved” (0.4 mg in 2 mL mixed liquid of water and deuterated ethanol (1:9 by mass)); “completely dissolved” (0.5 mg in 1 mL mixed liquid of benzene and deuterated toluene (1:9 by mass)); “completely dissolved” (0.5 mg in 1 mL mixed liquid of benzene and polystyrene (5:5 by mass)).

Regarding `c1ccc2cc3cc4cc5ccccc5cc4cc3cc2c1` [pentacene, Pentacene], the “dissolution in the solvent” value under setting [2] is reported as “not almost dissolved”.
